Experimental data taken from BindingDB's records for doi:10.3109/14756366.2012.732071 (Ondokuz Mayis University, 2013).

Columns and labels:
Carbonic anhydrase 2 = Carbonic anhydrase 2 (Homo sapiens, UniProt P00918); assay: Esterase Assay; conditions: pH 7.4; 25 °C
Protocol: (§1) The enzymatic reaction, in a total volume of 3.0 mL, contained 1.4 mL 0.05 M Tris-SO4 buffer (pH 7.4), 1 mL 3 mM NPA, 0.5 mL H2O and 0.1 mL enzyme solution. A reference measurement was obtained by preparing the same cuvette without enzyme solution. All compounds were tested in triplicate at each concentration used.

Carbonic anhydrase 1 = Carbonic anhydrase 1 (Homo sapiens, UniProt P00915); assay: Esterase Assay; conditions: pH 7.4; 25 °C
Protocol: as §1

Chain of Carbonic anhydrase 1 (P00915 whole entry): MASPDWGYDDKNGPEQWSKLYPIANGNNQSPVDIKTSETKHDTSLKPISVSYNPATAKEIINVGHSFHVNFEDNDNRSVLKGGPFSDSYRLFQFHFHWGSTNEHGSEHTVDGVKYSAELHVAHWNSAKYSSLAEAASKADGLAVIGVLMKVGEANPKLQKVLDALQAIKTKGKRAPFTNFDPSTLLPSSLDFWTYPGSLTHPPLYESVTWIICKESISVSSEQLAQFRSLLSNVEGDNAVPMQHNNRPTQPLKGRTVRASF

SMILES | Ki (Carbonic anhydrase 2) | Ki (Carbonic anhydrase 1)
Cc1cccc(N2C(=O)[C@@H](C)S[C@H]2c2ccc(C)s2)n1 [(2S,5R)-5-methyl-3-(6-methylpyridin-2-yl)-2-(5-methylthiophen-2-yl)thiazolidin-4-one] | 0.81 µM | 4.43 µM
Cc1cccc(N2C(=O)[C@H](C)S[C@H]2c2ccc(C)s2)n1 [(2S,5S)-5-methyl-3-(6-methylpyridin-2-yl)-2-(5-methylthiophen-2-yl)thiazolidin-4-one] | 0.93 µM | 5.58 µM
Cc1cccc(N2C(=O)CSC2c2cccs2)n1 (stereo unspecified) [Thiazolidin-based CA inhibitor, 1] | 1.34 µM | 6.8 µM
Cc1cccc(N2C(=O)[C@@H](C)S[C@H]2c2sccc2C)n1 [Thiazolidin-based CA inhibitor, 5b] | 3.59 µM | 29.4 µM

Results, then the compound that gave them:

Ki (Carbonic anhydrase 2) | Ki (Carbonic anhydrase 1) | SMILES
2.48 µM | 47.5 µM | Cc1cccc(N2C(=O)CSC2c2sccc2C)n1 (stereo unspecified) [Thiazolidin-based CA inhibitor, 2]
1.36 µM | 5.38 µM | Cc1cccc(N2C(=O)CSC2c2ccc(C)s2)n1 (stereo unspecified) [Thiazolidin-based CA inhibitor, 3]
1.32 µM | 5.51 µM | Cc1cccc(N2C(=O)C(C)SC2c2cccs2)n1 (stereo unspecified) [Thiazolidin-based CA inhibitor, 4]
2.29 µM | 27.5 µM | Cc1cccc(N2C(=O)[C@H](C)S[C@H]2c2sccc2C)n1 [Thiazolidin-based CA inhibitor, 5a]
